Measured values reported in patent US9243021B2, “Galactoside inhibitor of galectins” (University of Edinburgh, priority 2012, dated 2016).

Assays:
[1] = half-life by route of administration; format: in vivo; conditions: mice
galectin-3 = galectin-3 (Homo sapiens, UniProt P17931)
β-catenin activation = test: TGF-β1-induced β-catenin activation in primary alveolar epithelial cells (western blot); format: cell-based, mouse; conditions: primary alveolar epithelial cells from WT mice, TGF-β1, 10 μM TD139
Description: Primary alveolar epithelial cells from WT mice were plated and treated with TGF-β1 in the presence or absence of 10 μM TD139. FIG. 1D) Cells were lysed and analyzed for active β-catenin, total β-catenin and β-actin by western blot.
Treated and control mouse type II lung alveolar epithelial cells (AECs) were extracted following a standard method. Briefly, 1 ml of 50 U/ml dispase (BD Biosciences) was administered intratracheally into perfused lungs followed by instillation of 0.5 ml of 1% low melting point agarose. The agarose within the upper airways was allowed to set on ice for 2 minutes and the lungs were placed in 4 ml 50 U/ml dispase for 45 min at room temperature. The lung lobes minus the upper airways were then dispersed in DMEM containing 50 μg/ml DNAse I (Sigma-Aldrich, UK). The cell suspension was passed through a 100 μm cell strainer and the cells washed in DMEM followed by resuspension in DMEM containing 10% FCS. The cell suspension was plated onto tissue culture plastic for 1 h to allow any contaminated fibroblasts and macrophages to adhere. Non-adherent epithelial cells were counted and cultured for 2 days on tissue culture plastic or cover-slips pre-coated with 5 μg/ml collagen (AMS Biotechnology) and 10 μg/ml fibronectin (Sigma-Aldrich), Cells were washed three times in PBS before treatment. […]

[2] = tested on: bleomycin induced lung fibrosis; test: Model of bleomycin-induced lung fibrosis; format: in vivo, mouse; conditions: female C57/Bl6 mice, intratracheal on days 18, 20, 22 and 24, lungs harvested day 26
Description: Female C57/Bl6 mice (10-14 weeks old) were anaesthetized with halothane, and bleomycin or saline was administered intratracheally (33 μg in 50 μl of saline) and lungs were harvested on day 26. TD139 was instilled into the lungs of mice on days 18, 20, 22 and 24 of bleomycin induced lung injury. Fibrosis was assessed by histological score of collagen stained lung sections and by total collagen content by Sircol assay.
Mice were treated with bleomycin (bleo) or saline (control) and bleomycin treated mice were treated with 200 mg/kg pirfenidone twice daily on days 18-24. TD139 was administered intratracheally on days 18, 20, 22 and 24. Lungs were harvested on day 26.
Histological lung inflammation and fibrosis score were carried out in Masson's trichrome stained sections. Inflammation (peribronchiolar, perivascular, and alveolar wall thickness) scored in >5 random fields at magnification×630 using the following system (peribronchiolar and perivascular, 1=no cells, 2=<20 cells, 3=20-100 cells, 4=>100 cells; alveolar wall thickness, 1=no cells, 2=2-3 cells thick, 3=4-5 cells thick, 4=>5 cells thick). The combined inflammatory score was the sum of these scores. Fibrosis score was evaluated as the area of the section positively stained for collagen (1=none, 2=<10%, 3=<50%, 4=>50%). Only fields where the majority of the field was composed of alveoli were scored. […]

galectin-3, sequence (P17931 whole entry): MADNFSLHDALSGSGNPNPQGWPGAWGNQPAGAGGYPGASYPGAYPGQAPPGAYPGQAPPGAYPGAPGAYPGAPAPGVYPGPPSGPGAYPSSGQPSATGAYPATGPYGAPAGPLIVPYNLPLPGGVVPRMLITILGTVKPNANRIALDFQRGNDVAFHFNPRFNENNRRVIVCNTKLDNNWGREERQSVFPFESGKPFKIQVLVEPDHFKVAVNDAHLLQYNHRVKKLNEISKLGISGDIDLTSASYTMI

half-life, pulmonary route compared with i.v. or s.c. routes [1]: considerably longer half-life
galectin-3 inhibitor (galectin-3): inhibitor
Compound: OC[C@H]1O[C@@H](S[C@@H]2O[C@H](CO)[C@H](O)[C@H](n3cc(-c4cccc(F)c4)nn3)[C@H]2O)[C@H](O)[C@@H](n2cc(-c3cccc(F)c3)nn2)[C@H]1O [TD139, Bis-{3-deoxy-3-[4-(3-fluorophenyl)-1H-1,2,3-triazol-1-yl]-β-D-galactopyranosyl}sulfane]
TGF-β-induced β-catenin activation in vitro (β-catenin activation): blocked
bleomycin induced lung fibrosis in vivo [2]: blocked
